Measurements as given in the supplement of paper PMC10307832.

Columns and labels:
Assay in all cases: relative viability (nuclei count vs DMSO), 5 days (fraction); higher = more cells survive
HOP-62 = test system: HOP-62
Summary of the method: (§1)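 Lung cancer cell lines, seeded in 1536-well plates, were treated the following day by pin tool with a single drug or with five library-drug doses (not always all listed) in √10 steps on top of a fixed anchor-drug dose. Cells were fixed and nuclei stained in one step after 5 days, and nuclei were counted. Relative viability is the nuclei count for treated wells divided by that for vehicle wells, reported as medians of duplicate plates.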

SK-LU-1 = test system: SK-LU-1
Summary of the method: as §1

NCI-H460 = test system: NCI-H460
Summary of the method: as §1

A-427 = test system: A-427
Summary of the method: as §1

SW 1573 = test system: SW 1573
Summary of the method: as §1

NCI-H647 = test system: NCI-H647
Summary of the method: as §1

LXF-289 = test system: LXF-289
Summary of the method: as §1

NCI-H1915 = test system: NCI-H1915
Summary of the method: as §1

LC-2-ad = test system: LC-2-ad
Summary of the method: as §1

NCI-H2126 = test system: NCI-H2126
Summary of the method: as §1

NCI-H2347 = test system: NCI-H2347
Summary of the method: as §1

NCI-H2342 = test system: NCI-H2342
Summary of the method: as §1

LOU-NH91 = test system: LOU-NH91
Summary of the method: as §1

NCI-H1755 = test system: NCI-H1755
Summary of the method: as §1

NCI-H1975 = test system: NCI-H1975
Summary of the method: as §1

NCI-H2228 = test system: NCI-H2228
Summary of the method: as §1

RERF-LC-KJ = test system: RERF-LC-KJ
Summary of the method: as §1

NCI-H358 = test system: NCI-H358
Summary of the method: as §1

HCC-15 = test system: HCC-15
Summary of the method: as §1

PC-3 [JPC-3] = test system: PC-3 [JPC-3]
Summary of the method: as §1

HCC-78 = test system: HCC-78
Summary of the method: as §1

NCI-H1734 = test system: NCI-H1734
Summary of the method: as §1

O=C(O)c1ccc(-c2c[nH]c3ncc(-c4ccccc4)cc23)cc1C1CCCC1 + O=C(CCCCCCC(=O)Nc1ccccc1)NO [Vorinostat] (partner 1 µM) gave a relative viability (HOP-62; first compound 0.04 µM) of 0.694, a relative viability (HOP-62; first compound 0.1265 µM) of 0.606 and a relative viability (HOP-62; first compound 0.4 µM) of 0.594. For the same compound, the relative viability (HOP-62; first compound 1.265 µM) was 0.48, the relative viability (SK-LU-1; first compound 0.04 µM) was 0.793 and the relative viability (SK-LU-1; first compound 0.1265 µM) was 0.717. For the same compound, the relative viability (SK-LU-1; first compound 0.4 µM) was 0.684, the relative viability (SK-LU-1; first compound 1.265 µM) was 0.364 and the relative viability (NCI-H460; first compound 0.04 µM) was 0.642. It also gave a relative viability (NCI-H460; first compound 0.1265 µM) of 0.842, a relative viability (NCI-H460; first compound 0.4 µM) of 0.831 and a relative viability (NCI-H460; first compound 1.265 µM) of 0.603. The relative viability (A-427; first compound 0.04 µM) was 0.822, the relative viability (A-427; first compound 0.1265 µM) was 0.84 and the relative viability (A-427; first compound 0.4 µM) was 0.793. The relative viability (A-427; first compound 1.265 µM) was 0.742, the relative viability (SW 1573; first compound 0.04 µM) was 0.949 and the relative viability (SW 1573; first compound 0.1265 µM) was 0.878. For the same compound, the relative viability (SW 1573; first compound 0.4 µM) was 0.699, the relative viability (SW 1573; first compound 1.265 µM) was 0.656 and the relative viability (NCI-H647; first compound 0.04 µM) was 0.645. It also gave a relative viability (NCI-H647; first compound 0.1265 µM) of 0.47, a relative viability (NCI-H647; first compound 0.4 µM) of 0.491 and a relative viability (NCI-H647; first compound 1.265 µM) of 0.361. The relative viability (LXF-289; first compound 0.04 µM) was 0.769, the relative viability (LXF-289; first compound 0.1265 µM) was 0.773 and the relative viability (LXF-289; first compound 0.4 µM) was 0.632. It also gave a relative viability (LXF-289; first compound 1.265 µM) of 0.398, a relative viability (NCI-H1915; first compound 0.04 µM) of 0.532 and a relative viability (NCI-H1915; first compound 0.1265 µM) of 0.525. The relative viability (NCI-H1915; first compound 0.4 µM) was 0.501, the relative viability (NCI-H1915; first compound 1.265 µM) was 0.479 and the relative viability (LC-2-ad; first compound 0.04 µM) was 0.692. It also gave a relative viability (LC-2-ad; first compound 0.1265 µM) of 0.696, a relative viability (LC-2-ad; first compound 0.4 µM) of 0.668 and a relative viability (LC-2-ad; first compound 1.265 µM) of 0.454. The relative viability (NCI-H2126; first compound 0.04 µM) was 0.823, the relative viability (NCI-H2126; first compound 0.1265 µM) was 0.755 and the relative viability (NCI-H2126; first compound 0.4 µM) was 0.786. For the same compound, the relative viability (NCI-H2126; first compound 1.265 µM) was 0.616, the relative viability (NCI-H2347; first compound 0.04 µM) was 0.576 and the relative viability (NCI-H2347; first compound 0.1265 µM) was 0.773. The relative viability (NCI-H2347; first compound 0.4 µM) was 0.597, the relative viability (NCI-H2347; first compound 1.265 µM) was 0.46 and the relative viability (NCI-H2342; first compound 0.04 µM) was 0.783. It also gave a relative viability (NCI-H2342; first compound 0.1265 µM) of 0.762, a relative viability (NCI-H2342; first compound 0.4 µM) of 0.818 and a relative viability (NCI-H2342; first compound 1.265 µM) of 0.874. For the same compound, the relative viability (LOU-NH91; first compound 0.04 µM) was 0.987, the relative viability (LOU-NH91; first compound 0.1265 µM) was 0.992 and the relative viability (LOU-NH91; first compound 0.4 µM) was 0.942. The relative viability (LOU-NH91; first compound 1.265 µM) was 0.86, the relative viability (NCI-H1755; first compound 0.04 µM) was 0.762 and the relative viability (NCI-H1755; first compound 0.1265 µM) was 0.806. The relative viability (NCI-H1755; first compound 0.4 µM) was 0.797, the relative viability (NCI-H1755; first compound 1.265 µM) was 0.745 and the relative viability (NCI-H1975; first compound 0.04 µM) was 0.684. The relative viability (NCI-H1975; first compound 0.1265 µM) was 0.763, the relative viability (NCI-H1975; first compound 0.4 µM) was 0.736 and the relative viability (NCI-H1975; first compound 1.265 µM) was 0.441. For the same compound, the relative viability (NCI-H2228; first compound 0.04 µM) was 0.831, the relative viability (NCI-H2228; first compound 0.1265 µM) was 0.652 and the relative viability (NCI-H2228; first compound 0.4 µM) was 0.745. It also gave a relative viability (NCI-H2228; first compound 1.265 µM) of 0.291, a relative viability (RERF-LC-KJ; first compound 0.04 µM) of 0.714 and a relative viability (RERF-LC-KJ; first compound 0.1265 µM) of 0.74. It also gave a relative viability (RERF-LC-KJ; first compound 0.4 µM) of 0.724, a relative viability (RERF-LC-KJ; first compound 1.265 µM) of 0.574 and a relative viability (NCI-H358; first compound 0.04 µM) of 0.574. It also gave a relative viability (NCI-H358; first compound 0.1265 µM) of 0.795, a relative viability (NCI-H358; first compound 0.4 µM) of 0.536 and a relative viability (NCI-H358; first compound 1.265 µM) of 0.229. For the same compound, the relative viability (HCC-15; first compound 0.04 µM) was 0.848, the relative viability (HCC-15; first compound 0.1265 µM) was 0.872 and the relative viability (HCC-15; first compound 0.4 µM) was 0.834. It also gave a relative viability (HCC-15; first compound 1.265 µM) of 0.59, a relative viability (PC-3 [JPC-3]; first compound 0.04 µM) of 0.803 and a relative viability (PC-3 [JPC-3]; first compound 0.1265 µM) of 0.836. For the same compound, the relative viability (PC-3 [JPC-3]; first compound 0.4 µM) was 0.787, the relative viability (PC-3 [JPC-3]; first compound 1.265 µM) was 0.667 and the relative viability (HCC-78; first compound 0.1265 µM) was 0.451. The relative viability (HCC-78; first compound 0.4 µM) was 0.441, the relative viability (HCC-78; first compound 1.265 µM) was 0.448 and the relative viability (NCI-H1734; first compound 0.04 µM) was 0.866. It also gave a relative viability (NCI-H1734; first compound 0.1265 µM) of 0.858, a relative viability (NCI-H1734; first compound 0.4 µM) of 0.876 and a relative viability (NCI-H1734; first compound 1.265 µM) of 0.648.
